The source of these data is patent US8563714B2, “Bridged spiro [2.4] heptane derivatives as ALX receptor and/or FPRL2 agonists” (Actelion Pharmaceuticals Ltd., priority 2009, dated 2013).

The term pEC50 denotes the EC50 on a negative log10 scale, so that one unit is a factor of ten.

pEC50: −log10 of the molar value.

The target in one assay is T1, human ALX receptor (Homo sapiens, UniProt P25090).
T1 construct: expressed in transfected cells; host or cells: HEK293 (HEK293-hALXR-Gα16)
T1 sequence (P25090 1-351): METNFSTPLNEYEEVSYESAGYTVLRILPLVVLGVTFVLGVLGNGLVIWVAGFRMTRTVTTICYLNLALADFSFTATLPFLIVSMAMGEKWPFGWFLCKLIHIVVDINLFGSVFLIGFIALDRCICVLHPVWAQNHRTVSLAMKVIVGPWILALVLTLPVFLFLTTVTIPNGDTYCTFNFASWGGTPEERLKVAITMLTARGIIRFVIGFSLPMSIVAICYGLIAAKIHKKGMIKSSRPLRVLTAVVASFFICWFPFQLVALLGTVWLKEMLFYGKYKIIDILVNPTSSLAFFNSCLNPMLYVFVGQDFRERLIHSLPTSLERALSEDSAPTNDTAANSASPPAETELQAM
Briefly: Intracellular calcium measurements (FLIPR), agonistic activity in HEK293-hALXR-Gα16 cells. The format is cell-based. Conditions: Fluo-4 calcium FLIPR, normalized to WKYMVm 10 nM. The procedure, abridged:
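Agonist-induced calcium flux was recorded by FLIPR (488/540 nm) in HEK293-hALXR-Gα16 cells pre-loaded with Fluo-4 AM (1 μM, 60 min, 37°C). Peak signal above baseline, after subtracting buffer addition, was expressed relative to WKYMVm at 10 nM final.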

The next assay deals with T2, human FPRL2 (Homo sapiens, UniProt P25089).
T2 construct: expressed in transfected cells; host or cells: HEK293 (HEK293-hFPRL2-Gα16)
T2 sequence (P25089 1-353): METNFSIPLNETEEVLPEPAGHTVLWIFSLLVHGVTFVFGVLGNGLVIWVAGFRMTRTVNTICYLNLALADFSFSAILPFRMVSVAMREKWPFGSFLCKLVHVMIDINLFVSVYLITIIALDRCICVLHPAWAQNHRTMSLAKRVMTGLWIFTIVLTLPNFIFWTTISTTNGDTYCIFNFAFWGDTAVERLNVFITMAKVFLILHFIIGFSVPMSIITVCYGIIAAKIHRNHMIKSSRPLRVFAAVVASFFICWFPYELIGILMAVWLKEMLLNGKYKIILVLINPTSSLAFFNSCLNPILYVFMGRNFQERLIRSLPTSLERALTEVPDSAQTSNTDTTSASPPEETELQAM
Briefly: Intracellular calcium measurements (FLIPR), agonistic activity in HEK293-hFPRL2-Gα16 cells. In kind it is cell-based. Conditions: Fluo-4 calcium FLIPR, normalized to GLY14-Humanin 100 nM. The essentials:
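Peak values after baseline subtraction are expressed relative to 100 nM Gly14-Humanin; compounds diluted in assay buffer from 10 mM DMSO stocks.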

For the compound `O=C(NCCCCN1CCCC1)[C@H]1[C@H](C(=O)Nc2ccc(Br)c(F)c2F)[C@@H]2C=C[C@H]1C21CC1` [Example 316, (5R)—N^5-(4-Bromo-2,3-difluorophenyl)-(6R)—N^6-(4-pyrrolidino-butyl)-(4S,7R)-[4,7-ethenylene-spiro[2.4]heptane]-5,6-dicarboxamide], the pEC50 at human ALX receptor was 6.63; at human FPRL2, 6.91.
With `O=C(NCCCCN1CCCC1)[C@H]1[C@H](C(=O)NCc2cc(C(F)(F)F)ccc2Cl)[C@@H]2C=C[C@H]1C21CC1` (racemic) [Example 364, (5R*)—N^5-(2-Chloro-5-trifluoromethylphenyl-methyl)-(6R*)—N^6-(4-pyrrolidino-butyl)-(4S*,7R*)-[4,7-ethenylene-spiro[2.4]heptane]-5,6-dicarboxamide], the results for the pEC50 on human ALX receptor and on human FPRL2 were 5.00 and 6.43, respectively.
Take `O=C(NCCN1CCNC1=O)[C@H]1[C@H](C(=O)NCc2ccc(Br)cc2)[C@@H]2C=C[C@H]1C21CC1` (racemic) [Example 275, (5R*)—N^5-(4-Bromophenyl-methyl)-(6R*)—N^6-((2-imidazolidin-2-on)-1-yl-ethyl)-(4S*,7R*)-[4,7-ethenylene-spiro[2.4]heptane]-5,6-dicarboxamide]: the pEC50 on human ALX receptor was 6.74; on human FPRL2 it was 5.15.
On to `O=C(NCCCCN1CCCC1)[C@H]1[C@H](C(=O)NCc2csc(Br)c2)[C@@H]2C=C[C@H]1C21CC1` (racemic) [Example 202, (5R*)—N^5-(2-Bromo-thiophen-4-yl-methyl)-(6R*)—N^6-(4-pyrrolidin-1-yl-butyl)-(4S*,7R*)-[4,7-ethenylene-spiro[2.4]heptane]-5,6-dicarboxamide], for which the figures for the pEC50 at human ALX receptor and at human FPRL2 were 7.48 and 7.12, respectively.
As for `Cc1ccncc1C(=O)NC[C@H]1[C@H](C(=O)Nc2ccc(Br)cc2)[C@@H]2C=C[C@H]1C21CC1` (racemic) [Example 171, (5R*)—N^5-(4-Bromo-phenyl)-(6R*)-6-{[(4-methyl-pyridine-3-carbonyl)-amino]-methyl}-(4S*,7R*)-[4,7-ethenylene-spiro[2.4]heptane]-5-carboxamide], the negative logarithm of the EC50 (pEC50) at human ALX receptor was 6.93; on human FPRL2 it was 5.49.
With `O=C(NCCCCN1CCCC1)[C@H]1[C@H](C(=O)NCCc2ccc(Br)cc2)[C@@H]2C=C[C@H]1C21CC1` (racemic) [Example 379, (5R*)—N^5-(2-(4-Bromophenyl)ethyl)-(6R*)—N^6-(4-pyrrolidino-butyl)-(4S*,7R*)-[4,7-ethenylene-spiro[2.4]heptane]-5,6-dicarboxamide], the pEC50 on human ALX receptor is 5.06; on human FPRL2 it was 8.18.
`NCc1ccc(CNC(=O)[C@H]2[C@H](C(=O)NCc3ccc(Br)cc3)[C@@H]3C=C[C@H]2C32CC2)cc1` (racemic) [Example 309, (5R*)—N^5-(4-Bromophenyl-methyl)-(6R*)—N^6-(4-(aminomethyl)phenyl-methyl)-(4S*,7R*)-[4,7-ethenylene-spiro[2.4]heptane]-5,6-dicarboxamide]: the pEC50 was 6.44 on human ALX receptor and 5.87 at human FPRL2.
Consider `CC(C)(CN)CNC(=O)[C@H]1[C@H](C(=O)Nc2ccc(Br)cc2)[C@@H]2C=C[C@H]1C21CC1` (racemic) [Example 10, (5R*)—N^5-(4-Bromophenyl)-(6R*)—N^6-(2,2-dimethyl-3-amino-propyl)-(4S*,7R*)-[4,7-ethenylene-spiro[2.4]heptane]-5,6-dicarboxamide], for which the negative-log EC50 (pEC50) is 9.01 on human ALX receptor and 6.14 at human FPRL2.
With `O=C(NCCCCN1CCCC1)[C@H]1[C@H](C(=O)Nc2ncc(Br)s2)[C@@H]2CC[C@H]1C21CC1` [Example 238, (5R)—N^5-(5-Bromo-thiazol-2-yl)-(6R)—N^6-(4-pyrrolidin-1-yl-butyl)-(4S,7R)-[4,7-ethylene-spiro[2.4]heptane]-5,6-dicarboxamide], the negative-log EC50 (pEC50) at human ALX receptor is 7.66; on human FPRL2, 6.85.
Take `O=C(NCCCCN1CC[C@@H](F)C1)[C@H]1[C@H](C(=O)Nc2ccc(Br)cc2)[C@@H]2C=C[C@H]1C21CC1` [Example 219, (5R)—N^5-(4-Bromophenyl)-(6R)—N^6-(4((3R)-fluoropyrrolidino)butyl)-(4S,7R)-[4,7-ethenylene-spiro[2.4]heptane]-5,6-dicarboxamide]: the pEC50 is 9.52 at human ALX receptor and 6.76 on human FPRL2.
In the case of `COc1ccc(C)cc1CNC(=O)[C@H]1[C@H](C(=O)NCCCCN2CCCC2)[C@H]2C=C[C@@H]1C21CC1` (racemic) [Example 370, (5R*)—N^5-(2-Methoxy-5-methylphenyl-methyl)-(6R*)—N^6-(4-pyrrolidino-butyl)-(4S*,7R*)-[4,7-ethenylene-spiro[2.4]heptane]-5,6-dicarboxamide], the pEC50 at human ALX receptor was less than 4.60; on human FPRL2 it was 6.74.
Take `O=C(NCCCCN1CCCC1)[C@H]1[C@H](C(=O)NCc2cc(F)c(Br)c(F)c2)[C@@H]2C=C[C@H]1C21CC1` [Example 328, (5R)—N^5-(4-Bromo-3,5-difluorophenyl-methyl)-(6R)—N^6-(4-pyrrolidino-butyl)-(4S,7R)-[4,7-ethenylene-spiro[2.4]heptane]-5,6-dicarboxamide]: the negative-log EC50 (pEC50) is 7.34 on human ALX receptor and 7.22 on human FPRL2.
For the compound `Cc1cnc(NC(=O)[C@H]2[C@H](C(=O)NCCCCN3CCCC3)[C@H]3C=C[C@@H]2C32CC2)s1` (racemic) [Example 193, (5R*)—N^5-(5-Methyl-thiazol-2-yl)-(6R*)—N^6-(4-pyrrolidin-1-yl-butyl)-(4S*,7R*)-[4,7-ethenylene-spiro[2.4]heptane]-5,6-dicarboxamide], the negative logarithm of the EC50 (pEC50) at human ALX receptor was 6.33; on human FPRL2, 6.45.
As for `CNCCNC(=O)[C@H]1[C@H](C(=O)Nc2ncc(Br)s2)[C@@H]2CC[C@H]1C21CC1` [Example 413, (5R)—N^5-(5-Bromothiazol-2-yl)-(6R)—N^6-(2-(N-methylamino)-ethyl)-(4S,7R)-[4,7-ethylene-spiro[2.4]heptane]-5,6-dicarboxamide], the figures for the negative logarithm of the EC50 (pEC50) on human ALX receptor and at human FPRL2 were 7.89 and 5.68, respectively.
`O=C(NCCCCN1CCCC1)[C@H]1[C@H](C(=O)Nc2ccc(OC(F)(F)F)cc2)[C@@H]2C=C[C@H]1C21CC1` (racemic) [Example 133, (5R*)—N^5-(4-Trifluoromethoxyphenyl)-(6R*)—N^6-(4-pyrrolidin-1-yl-butyl)-(4S*,7R*)-[4,7-ethenylene-spiro[2.4]heptane]-5,6-dicarboxamide]: the pEC50 at human ALX receptor is 6.58; on human FPRL2, 6.91.
Consider `CN1CCN(CCCNC(=O)[C@H]2[C@H](C(=O)Nc3ncc(Br)s3)[C@@H]3C=C[C@H]2C32CC2)CC1` (racemic) [Example 265, (5R*)—N^5-(5-Bromothiazol-2-yl)-(6R*)—N^6-(3-(4-methylpiperazin-1-yl)-propyl)-(4S*,7R*)-[4,7-ethenylene-spiro[2.4]heptane]-5,6-dicarboxamide], for which the pEC50 at human ALX receptor was 7.31; at human FPRL2, 6.34.
Turning to `O=C(NCCCCN1CCCC1)[C@H]1[C@H](C(=O)Nc2ncc(Cl)s2)[C@@H]2C=C[C@H]1C21CC1` (racemic) [Example 129, (5R*)—N^5-(5-Chloro-thiazol-2-yl)-(6R*)—N^6-(4-pyrrolidin-1-yl-butyl)-(4S*,7R*)-[4,7-ethenylene-spiro[2.4]heptane]-5,6-dicarboxamide], the negative logarithm of the EC50 (pEC50) was 6.92 on human ALX receptor and 5.92 on human FPRL2.
